Source: patent US10039759B2, “Quinolines as FGFR kinase modulators” (priority 2011, dated 2018)
Read-outs that look alike come from different tables or passages of the source.

Assays:
[1] = target: FGFR2 (h) (Homo sapiens, UniProt P21802); test: FGFR2 (enzymatic assay), TR-FRET; assay type: biochemical; conditions: 0.4 μM ATP, 60 min; pIC50 = -log IC50 (M); average if tested multiple times; read-out: FGFR 2 pIC50 (converted)
[2] = target: FGFR3 (h) (Homo sapiens, UniProt P22607); test: FGFR3 (enzymatic assay), TR-FRET; assay type: biochemical; conditions: 25 μM ATP, 60 min; pIC50 = -log IC50 (M); average if tested multiple times; read-out: hFGFR 3 pIC50 (converted)
FGFR3 (h), sequence (P22607 23-806): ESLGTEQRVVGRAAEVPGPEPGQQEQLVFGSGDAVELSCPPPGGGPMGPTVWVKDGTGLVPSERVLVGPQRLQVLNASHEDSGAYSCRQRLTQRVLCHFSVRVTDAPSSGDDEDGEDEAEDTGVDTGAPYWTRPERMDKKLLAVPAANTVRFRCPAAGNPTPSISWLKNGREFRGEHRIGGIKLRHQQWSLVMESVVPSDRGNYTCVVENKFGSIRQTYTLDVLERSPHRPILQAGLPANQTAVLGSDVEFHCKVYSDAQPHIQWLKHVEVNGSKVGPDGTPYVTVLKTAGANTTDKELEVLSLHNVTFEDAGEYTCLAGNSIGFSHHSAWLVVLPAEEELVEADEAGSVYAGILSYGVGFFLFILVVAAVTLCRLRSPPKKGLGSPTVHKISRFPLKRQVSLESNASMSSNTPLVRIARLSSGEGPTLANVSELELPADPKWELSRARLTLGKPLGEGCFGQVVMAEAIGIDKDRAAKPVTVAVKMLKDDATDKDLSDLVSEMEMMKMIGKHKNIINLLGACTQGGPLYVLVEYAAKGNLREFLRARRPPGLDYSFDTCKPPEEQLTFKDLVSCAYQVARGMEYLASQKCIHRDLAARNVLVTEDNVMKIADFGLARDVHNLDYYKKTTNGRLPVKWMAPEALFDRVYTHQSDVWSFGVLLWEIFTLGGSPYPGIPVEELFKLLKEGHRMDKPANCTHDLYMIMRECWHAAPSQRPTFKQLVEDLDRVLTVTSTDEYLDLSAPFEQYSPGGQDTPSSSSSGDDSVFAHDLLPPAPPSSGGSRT

[3] = target: FGFR4 (h) (Homo sapiens, UniProt P22455); test: FGFR4 (enzymatic assay), TR-FRET; assay type: biochemical; conditions: FGFR 4 pIC50, 5 μM ATP, 60 min; pIC50 = -log IC50 (M); average if tested multiple times
FGFR4 (h), sequence (P22455 22-802): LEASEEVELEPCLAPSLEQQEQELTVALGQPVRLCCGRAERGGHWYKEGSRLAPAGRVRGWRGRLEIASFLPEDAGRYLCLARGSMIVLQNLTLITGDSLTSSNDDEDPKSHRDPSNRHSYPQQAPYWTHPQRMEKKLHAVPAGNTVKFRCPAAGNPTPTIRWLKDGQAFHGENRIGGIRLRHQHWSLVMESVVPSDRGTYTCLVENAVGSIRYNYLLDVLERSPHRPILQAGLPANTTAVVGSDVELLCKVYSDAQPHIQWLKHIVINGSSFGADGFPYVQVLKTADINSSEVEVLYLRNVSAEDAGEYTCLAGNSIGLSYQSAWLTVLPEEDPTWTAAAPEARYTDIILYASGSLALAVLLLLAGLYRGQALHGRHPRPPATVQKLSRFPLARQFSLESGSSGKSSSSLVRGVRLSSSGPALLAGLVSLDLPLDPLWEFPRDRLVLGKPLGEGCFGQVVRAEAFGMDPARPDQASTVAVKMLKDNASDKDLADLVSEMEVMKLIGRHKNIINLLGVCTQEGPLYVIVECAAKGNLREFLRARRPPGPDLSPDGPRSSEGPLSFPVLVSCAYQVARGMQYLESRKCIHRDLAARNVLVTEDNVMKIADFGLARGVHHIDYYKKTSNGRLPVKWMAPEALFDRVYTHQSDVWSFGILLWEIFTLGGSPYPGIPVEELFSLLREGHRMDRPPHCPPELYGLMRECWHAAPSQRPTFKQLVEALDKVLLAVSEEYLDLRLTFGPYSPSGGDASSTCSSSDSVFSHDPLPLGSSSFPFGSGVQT

[4] = target: KDR (h) (Homo sapiens, UniProt P35968); test: KDR (VEGFR2) (enzymatic assay), TR-FRET; assay type: biochemical; conditions: 120 min, pIC50 = -log IC50 (M), average if tested multiple times
Description: KDR (VEGFR2) (Enzymatic Assay)
In a final reaction volume of 30 μL, KDR (h) (150 ng/ml) was incubated with 50 mM HEPES pH 7.5, 6 mM MnCl2, 1 mM DTT, 0.1 mM Na3VO4, 0.01% Triton-X-100, 500 nM Btn-Flt3 and 3 μM ATP in the presence of compound (1% DMSO final). After incubation for 120 minutes at room temperature the reaction was stopped with 2.27 nM EU-anti P-Tyr, 7 mM EDTA, 31.25 nM SA-XL-665 and 0.02% BSA which was present for 60 minutes at room temperature. Time-Resolved Fluorescence Resonance Energy Transfer (TR-FRET) signal (ex340 nm. Em 620 nm, em 655 nm) was measured afterwards and results are expressed in RFU (Relative Fluorescence Units). In this assay, the inhibitory effect of different compound concentrations (range 10 μM to 0.1 nM) was determined and used to calculate an IC50 (M) and pIC50 (−log IC50) value.

[5] = target: T1, Ba/F3-FGFR1-transfected cells (Homo sapiens, UniProt P11362, cells depend on it, form not given); test: Ba/F3-FGFR1 (minus IL3 or plus IL3) cellular proliferation assay, Alamar Blue; assay type: cell-based; conditions: minus IL3, 24 hours
T1 construct: other: minus IL3; 24 hours, Alamar Blue
T1 sequence (P11362 whole entry, change not shown): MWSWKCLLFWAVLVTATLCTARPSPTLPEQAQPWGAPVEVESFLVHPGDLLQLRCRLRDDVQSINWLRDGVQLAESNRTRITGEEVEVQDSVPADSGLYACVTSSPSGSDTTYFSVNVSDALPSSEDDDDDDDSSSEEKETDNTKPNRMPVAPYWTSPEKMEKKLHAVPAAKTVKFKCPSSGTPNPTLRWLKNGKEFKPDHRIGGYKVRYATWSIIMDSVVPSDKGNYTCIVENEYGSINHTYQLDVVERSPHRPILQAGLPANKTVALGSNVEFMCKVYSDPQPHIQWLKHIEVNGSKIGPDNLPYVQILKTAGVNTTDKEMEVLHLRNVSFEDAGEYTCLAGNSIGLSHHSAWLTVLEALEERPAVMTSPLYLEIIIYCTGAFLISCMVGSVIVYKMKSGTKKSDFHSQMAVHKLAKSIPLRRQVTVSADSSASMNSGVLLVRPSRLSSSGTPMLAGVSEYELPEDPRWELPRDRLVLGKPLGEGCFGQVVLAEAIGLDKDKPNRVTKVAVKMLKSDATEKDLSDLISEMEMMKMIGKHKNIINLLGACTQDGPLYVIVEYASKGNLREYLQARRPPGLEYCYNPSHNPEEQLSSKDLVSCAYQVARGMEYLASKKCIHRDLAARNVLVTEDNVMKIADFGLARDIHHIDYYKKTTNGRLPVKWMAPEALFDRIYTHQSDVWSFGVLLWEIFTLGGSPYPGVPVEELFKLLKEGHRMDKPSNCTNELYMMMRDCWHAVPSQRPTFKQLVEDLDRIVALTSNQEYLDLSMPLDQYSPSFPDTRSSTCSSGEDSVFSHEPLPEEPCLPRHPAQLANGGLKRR
Description: Ba/F3-FGFR1 (Minus IL3 or Plus IL3) (Cellular Proliferation Assay)
(§1) In a 384 well plate, 100 nl of compound dilution in DMSO was sprayed before adding 50 μl cell culture medium (phenol red free RPMI-1640, 10% FBS, 2 mM L-Glutamine and 50 μg/ml Gentamycin) containing 20000 cells per well of Ba/F3-FGFR1-transfected cells. Cells were put in an incubator at 37° C. and 5% CO2. After 24 hours, 10 μl of Alamar Blue solution (0.5 mM K3Fe(CN)6, 0.5 mM K4Fe(CN)6, 0.15 mM Resazurin and 100 mM Phosphate Buffer) was added to the wells, incubated for 4 hours at 37° C. and 5% CO2 before RFU's (Relative Fluorescence Units) (ex. 540 nm., em. 590 nm.) were measured in a fluorescence plate reader.
(§2) In this assay, the inhibitory effect of different compound concentrations (range 10 μM to 0.1 nM) was determined and used to calculate an IC50 (M) and pIC50 (−log IC50) value. As a counterscreen the same experiment was performed in the presence of 10 ng/ml murine IL3.

[6] = target: T2, Ba/F3-FGFR3-transfected cells (Homo sapiens, UniProt P22607, cells depend on it, form not given); test: Ba/F3-FGFR3 (minus IL3 or plus IL3) cellular proliferation assay, Alamar Blue; assay type: cell-based; conditions: minus IL3; 24 hours, Alamar Blue
T2 construct: BAF3-FGFR3 (MIN IL3 Alamar Blue- pIC50); other: minus IL3; 24 hours, Alamar Blue
T2 sequence (P22607 whole entry, change not shown): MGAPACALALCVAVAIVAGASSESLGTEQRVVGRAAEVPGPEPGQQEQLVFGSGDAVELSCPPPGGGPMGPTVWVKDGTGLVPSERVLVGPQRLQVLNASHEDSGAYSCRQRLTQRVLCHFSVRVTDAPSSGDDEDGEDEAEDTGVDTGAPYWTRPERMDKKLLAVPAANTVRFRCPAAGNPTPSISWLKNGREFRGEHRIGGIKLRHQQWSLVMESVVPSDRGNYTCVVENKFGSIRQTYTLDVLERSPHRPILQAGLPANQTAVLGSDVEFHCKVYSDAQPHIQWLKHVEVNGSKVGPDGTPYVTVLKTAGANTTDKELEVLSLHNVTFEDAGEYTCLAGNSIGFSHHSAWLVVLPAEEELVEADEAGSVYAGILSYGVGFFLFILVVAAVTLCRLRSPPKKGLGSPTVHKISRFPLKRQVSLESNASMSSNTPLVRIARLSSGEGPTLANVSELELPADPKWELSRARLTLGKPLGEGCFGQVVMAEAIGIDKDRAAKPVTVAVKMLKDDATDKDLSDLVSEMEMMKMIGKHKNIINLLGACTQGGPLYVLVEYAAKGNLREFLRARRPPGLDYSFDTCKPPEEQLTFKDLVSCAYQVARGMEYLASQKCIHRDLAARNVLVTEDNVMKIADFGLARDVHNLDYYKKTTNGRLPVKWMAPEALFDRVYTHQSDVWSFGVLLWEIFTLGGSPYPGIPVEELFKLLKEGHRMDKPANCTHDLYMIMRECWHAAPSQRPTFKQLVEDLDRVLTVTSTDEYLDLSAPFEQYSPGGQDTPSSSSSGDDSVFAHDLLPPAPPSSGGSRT
Description: Ba/F3-FGFR3 (Minus IL3 or Plus IL3) (Cellular Proliferation Assay)
as §1, with “Ba/F3-FGFR3-transfected” for “Ba/F3-FGFR1-transfected”
as §2

[7] = target: T3, Ba/F3-KDR-transfected cells (Homo sapiens, UniProt P35968, cells depend on it, form not given); test: Ba/F3-KDR (minus IL3 or plus IL3) cellular proliferation assay, Alamar Blue; assay type: cell-based; conditions: minus IL3; 24 hours, Alamar Blue
T3 construct: BAF3-KDR (MIN IL3 Alamar Blue pIC50); other: minus IL3; 24 hours, Alamar Blue
Description: Ba/F3-KDR (Minus IL3 or Plus IL3) (Cellular Proliferation Assay)
as §1, with “Ba/F3-KDR-transfected” for “Ba/F3-FGFR1-transfected”
as §2

[8] = target: Ba/F3-FGFR4-transfected cells (Homo sapiens, UniProt P22455); test: Ba/F3-FGFR4 cellular proliferation assay, Alamar Blue; assay type: cell-based; conditions: 24 hours
Ba/F3-FGFR4-transfected cells, sequence (P22455 whole entry, change not shown): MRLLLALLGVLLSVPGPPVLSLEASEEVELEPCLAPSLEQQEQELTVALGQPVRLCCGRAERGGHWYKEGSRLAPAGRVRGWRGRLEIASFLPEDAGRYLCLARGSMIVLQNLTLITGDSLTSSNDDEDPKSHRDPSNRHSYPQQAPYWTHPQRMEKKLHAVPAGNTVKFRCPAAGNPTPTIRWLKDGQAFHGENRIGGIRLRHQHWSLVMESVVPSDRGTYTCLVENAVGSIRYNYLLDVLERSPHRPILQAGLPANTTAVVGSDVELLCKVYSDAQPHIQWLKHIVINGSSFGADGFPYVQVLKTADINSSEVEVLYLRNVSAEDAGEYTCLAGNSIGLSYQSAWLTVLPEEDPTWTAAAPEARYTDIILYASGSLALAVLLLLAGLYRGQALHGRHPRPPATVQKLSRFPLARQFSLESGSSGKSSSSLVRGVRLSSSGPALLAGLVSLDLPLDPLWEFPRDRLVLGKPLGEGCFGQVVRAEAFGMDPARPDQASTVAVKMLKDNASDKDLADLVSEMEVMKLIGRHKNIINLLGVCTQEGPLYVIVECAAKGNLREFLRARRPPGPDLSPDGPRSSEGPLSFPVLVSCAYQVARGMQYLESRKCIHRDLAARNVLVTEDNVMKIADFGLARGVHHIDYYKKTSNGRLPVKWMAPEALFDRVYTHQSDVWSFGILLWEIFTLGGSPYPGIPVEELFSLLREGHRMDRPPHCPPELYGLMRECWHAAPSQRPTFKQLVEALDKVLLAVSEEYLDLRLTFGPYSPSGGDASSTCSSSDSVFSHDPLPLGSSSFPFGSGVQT
Description: Ba/F3-FGFR4 (Cellular Proliferation Assay)
as §1, with “Ba/F3-FGFR4-transfected” for “Ba/F3-FGFR1-transfected”
In this assay, the inhibitory effect of different compound concentrations (range 10 μM to 0.1 nM) was determined and used to calculate an IC50 (M) and pIC50 (−log IC50) value.

[9] = 3 μM ATP, read-out: VEGFR KDR pIC50 (converted)

FGFR2 (h), sequence (P21802 22-821): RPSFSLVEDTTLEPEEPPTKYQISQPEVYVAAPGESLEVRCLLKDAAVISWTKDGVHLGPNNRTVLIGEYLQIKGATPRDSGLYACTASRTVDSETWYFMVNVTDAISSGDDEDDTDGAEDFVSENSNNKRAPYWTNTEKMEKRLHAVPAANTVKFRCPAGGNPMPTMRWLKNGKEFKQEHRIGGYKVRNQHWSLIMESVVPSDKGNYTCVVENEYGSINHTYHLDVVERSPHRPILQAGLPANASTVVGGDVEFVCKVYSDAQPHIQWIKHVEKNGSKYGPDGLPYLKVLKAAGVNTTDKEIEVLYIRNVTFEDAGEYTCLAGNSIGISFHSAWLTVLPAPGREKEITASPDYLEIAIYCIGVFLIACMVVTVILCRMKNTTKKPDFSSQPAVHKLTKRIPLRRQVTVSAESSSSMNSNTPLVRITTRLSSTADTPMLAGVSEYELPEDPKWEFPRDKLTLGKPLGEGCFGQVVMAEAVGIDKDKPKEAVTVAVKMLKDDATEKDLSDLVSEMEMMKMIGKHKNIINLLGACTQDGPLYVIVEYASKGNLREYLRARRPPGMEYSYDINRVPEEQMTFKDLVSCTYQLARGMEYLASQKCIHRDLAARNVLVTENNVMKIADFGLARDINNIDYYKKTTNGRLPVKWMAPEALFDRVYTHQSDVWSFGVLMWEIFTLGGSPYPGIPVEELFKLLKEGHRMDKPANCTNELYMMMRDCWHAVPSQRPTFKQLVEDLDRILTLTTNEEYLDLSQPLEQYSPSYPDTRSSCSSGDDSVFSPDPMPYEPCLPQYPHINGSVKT

SMILES | IC50 [1] | IC50 [2] | IC50 [3] | IC50 [4, 9] | BAF3-FGFR1 (MIN IL3 pIC50) [5] | BAF3-FGFR3 (MIN IL3 Alamar Blue- pIC50) [6] | BAF3-KDR (MIN IL3 Alamar Blue pIC50) [7] | BAF3-FGFR 4 (pIC50) [8] | IC50 ([4]; VEGFR KDR pIC50, 3 μM ATP)
C#CCN(c1cc(OC)cc(OC)c1)c1ccc2ncc(-c3cnn(C)c3)cc2c1 [Compound 6] | 3.02e-08 M | 1.35e-08 M | 1.51e-07 M | 4.27e-07 M | 5.7 | 5.79 | 5.07 | 5.4 | –
COc1cc(OC)cc(N(CCNC(C)C)c2ccc3ncc(-c4cnn(C)c4)cc3c2)c1 [Compound 1] | 4.95e-09 M | 7.94e-09 M | 1.38e-08 M | 7.41e-08 M | 7.4 | 7.555 | 5.635 | 7.19 | –
COc1cc(OC)cc(N(CCCN2CCCC2=O)c2ccc3ncc(-c4cnn(C)c4)cc3c2)c1 [Compound 10] | 1.29e-08 M | 1.55e-08 M | 8.32e-08 M | – | 6.03 | 6.2 | 5.11 | 5.63 | 8.13e-08 M
COc1cc(OC)cc(N(CCCN)c2ccc3ncc(-c4cnn(C)c4)cc3c2)c1 [Compound 11] | 2.29e-09 M | 3.39e-09 M | 2e-08 M | 4.47e-08 M | 6.67 | 6.97 | 5.42 | 6.39 | –
COc1cc(OC)cc(C(O)c2ccc3ncc(-c4cnn(C)c4)cc3c2)c1 (stereo not shown) [Compound 12] | 4.17e-07 M | 2.34e-07 M | > 9.33e-07 M | > 1e-06 M | <5.03 | ~5.075 | <5 | <5 | –

Further lines, with some results ahead:

IC50 [1] | IC50 [2] | IC50 [3] | IC50 [4, 9] | BAF3-FGFR1 (MIN IL3 pIC50) [5] | BAF3-FGFR3 (MIN IL3 Alamar Blue- pIC50) [6] | BAF3-KDR (MIN IL3 Alamar Blue pIC50) [7] | BAF3-FGFR 4 (pIC50) [8] | SMILES | IC50 ([4]; VEGFR KDR pIC50, 3 μM ATP)
5.62e-09 M | 2.37e-09 M | 3.13e-09 M | 3.76e-08 M | 8.715 | 8.22 | 5.335 | 8.18 | COc1cccnc1C#CCN(c1ccc2ncc(-c3cnn(C)c3)cc2c1)c1c(F)c(OC)cc(OC)c1F [Compound 27] | –
3.89e-09 M | 1.32e-09 M | 2.19e-09 M | 1.17e-08 M | ~8.03 | 8.46 | 6.44 | 7.44 | COc1cc(OC)cc(N(CCCN2CCCC2CNS(=O)(=O)C(F)(F)F)c2ccc3ncc(-c4cnn(C)c4)cc3c2)c1 (stereo not shown) [Compound 47] | –
3.89e-09 M | 2.4e-09 M | 4.37e-09 M | 4.37e-08 M | 7.85 | 7.78 | 5.79 | ~7.11 | COc1cc(OC)cc(N(CCNC(C)C)c2ccc3ncc(-c4cnn(C5CCCCO5)c4)cc3c2)c1 (stereo not shown) [Compound 22] | –
2.51e-09 M | 1.26e-09 M | 4.79e-09 M | 1.15e-07 M | 6.88 | 7.22 | 5.01 | 6.57 | COc1cc(OC)cc(N(Cc2ncc[nH]2)c2ccc3ncc(-c4cnn(C)c4)cc3c2)c1 [Compound 18] | –
3.72e-08 M | 3.72e-08 M | 4.9e-07 M | 3.16e-07 M | 5.29 | ~5.53 | <5 | 5.04 | COc1cc(Nc2ccc3ncc(-c4cnn(C5CCCCO5)c4)cc3c2)cc(OC)c1 (stereo not shown) [Int. 8] | –
4.9e-09 M | ~1.1e-09 M | 7.94e-09 M | 2.88e-07 M | 7.73 | ~7.67 | 5.05 | 6.6 | COc1cc(OC)cc(N(CC(O)C(F)(F)F)c2ccc3ncc(-c4cnn(C)c4)cc3c2)c1 (single isomer, unassigned) [Compound 24] | –
